# In paper PMC7039746 (Cancer chemotherapy and pharmacology, 2020):
# Biological target: EcPNP (Escherichia coli purine nucleoside phosphorylase) (Escherichia coli, UniProt P0ABP8)
# Settings: phosphate co-substrate (50 mM potassium phosphate), 100 mM HEPES pH 7.4, 25 °C
# Chain of EcPNP (Escherichia coli purine nucleoside phosphorylase) (P0ABP8 2-239): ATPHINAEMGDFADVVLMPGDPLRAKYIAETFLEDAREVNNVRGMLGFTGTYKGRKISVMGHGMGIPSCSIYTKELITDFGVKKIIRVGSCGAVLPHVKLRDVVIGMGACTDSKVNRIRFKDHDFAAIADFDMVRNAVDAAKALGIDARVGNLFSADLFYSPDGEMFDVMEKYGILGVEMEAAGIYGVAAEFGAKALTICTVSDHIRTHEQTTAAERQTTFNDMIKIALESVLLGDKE
smiles,measurement,value
"Nc1nc(F)nc2c1ncn2[C@@H]1O[C@H](CO)[C@@H](O)[C@@H]1O [F-araA, 9-β-D-arabinofuranosyl-2-F-adenine]",Km,~950 µM
